This note sets out measurements from ChEMBL document CHEMBL1147697, “Synthesis and structure-activity relationship of a novel, achiral series of TNF-alpha converting enzyme inhibitors” (Bioorg Med Chem Lett, 2006).

Data set [1] can be described thus: Dissociation constant, pKa of the compound. Type of data set: physicochemical.
A short description of data set [2]: Partition coefficient, logP of the compound. The class given is physicochemical. The settings on record: octanol/water.
The nature of data set [3]: Oral bioavailability in Beagle dog at 10 mg/kg, po. As to conditions: in vivo. Type of data set: ADME, organism-based, Canis lupus familiaris.
The nature of data set [4]: AUC in Beagle dog at 10 mg/kg, po. The class given is ADME, organism-based, Canis lupus familiaris. On the set-up: dose 10 mg/kg, route oral. The settings on record: plasma.
The nature of data set [5]: Oral bioavailability in Sprague-Dawley rat at 30 mg/kg, po. The class given is ADME, organism-based. The settings on record: in vivo.
Data set [6] is described as follows: Clearance in Sprague-Dawley rat at 2 mg/kg, iv. The class given is ADME, organism-based. Also on record: dose 2 mg/kg, route intravenous. As to conditions: in vivo.
Data set [7] is described as follows: Volume of distribution in Beagle dog at 2 mg/kg, iv. Type of data set: ADME, organism-based, Canis lupus familiaris. On the set-up: dose 2 mg/kg, route intravenous. As to conditions: in vivo, read-out: Vdss.
Data set [8] is described as follows: Tmax in Sprague-Dawley rat at 30 mg/kg, po. The settings on record: in vivo. The class given is ADME, organism-based. Also on record: dose 30 mg/kg, route oral.
The nature of data set [9]: AUC in Beagle dog at 2 mg/kg, iv. Type of data set: ADME, organism-based, Canis lupus familiaris. Also on record: dose 2 mg/kg, route intravenous. The settings on record: plasma.
The nature of data set [10]: Cmax in Sprague-Dawley rat at 30 mg/kg, po. Also on record: dose 30 mg/kg, route oral. The settings on record: in vivo. Type of data set: ADME, organism-based.
Data set [11] can be described thus: Volume of distribution in Sprague-Dawley rat at 2 mg/kg, iv. The class given is ADME, organism-based. Also on record: dose 2 mg/kg, route intravenous. As to conditions: in vivo, read-out: Vdss.
Data set [12] can be described thus: Stability in chimp liver S9 fraction after 30 mins. Type of data set: ADME, Pan troglodytes. As to conditions: chimpanzee, read-out: Stability.
Data set [13] is described as follows: AUC in Sprague-Dawley rat at 30 mg/kg, po. The class given is ADME, organism-based. Also on record: dose 30 mg/kg, route oral. As to conditions: plasma.
Data set [14] in a line: Cmax in Beagle dog at 10 mg/kg, po. As to conditions: in vivo. Also on record: dose 10 mg/kg, route oral. Type of data set: ADME, organism-based, Canis lupus familiaris.
Data set [15] in a line: Tmax in Beagle dog at 10 mg/kg, po. The class given is ADME, organism-based, Canis lupus familiaris. On the set-up: dose 10 mg/kg, route oral. As to conditions: in vivo.
A short description of data set [16]: Stability in human liver S9 fraction after 30 mins. The settings on record: read-out: Stability. Type of data set: ADME, organism-based.
Data set [17] can be described thus: Half life in Beagle dog at 2 mg/kg, iv. Also on record: dose 2 mg/kg, route intravenous. The settings on record: in vivo. Type of data set: ADME, organism-based, Canis lupus familiaris.
Data set [18] in a line: Half life in Sprague-Dawley rat at 2 mg/kg, iv. The class given is ADME, organism-based. On the set-up: dose 2 mg/kg, route intravenous. The settings on record: in vivo.
The nature of data set [19]: AUC in Sprague-Dawley rat at 2 mg/kg, iv. The class given is ADME, organism-based. Also on record: dose 2 mg/kg, route intravenous. The settings on record: plasma.
Data set [20] can be described thus: Half life in Sprague-Dawley rat at 30 mg/kg, po. On the set-up: dose 30 mg/kg, route oral. As to conditions: in vivo. The class given is ADME, organism-based.
Data set [21] can be described thus: Clearance in Beagle dog at 2 mg/kg, iv. As to conditions: in vivo. On the set-up: dose 2 mg/kg, route intravenous. The class given is ADME, organism-based, Canis lupus familiaris.
Data set [22] in a line: Half life in Beagle dog at 10 mg/kg, po. The settings on record: in vivo. Type of data set: ADME, organism-based, Canis lupus familiaris. On the set-up: dose 10 mg/kg, route oral.
Data set [23] in a line: Oral bioavailability in Beagle dog at 1 mg/kg, po. The class given is ADME, organism-based, Canis lupus familiaris. As to conditions: in vivo.
Data set [24] can be described thus: Half life in Sprague-Dawley rat at 3.3 mg/kg, iv. The class given is ADME, organism-based. Also on record: dose 3.3 mg/kg, route intravenous. The settings on record: in vivo.
For data set [25], the system named is Rattus norvegicus. The experiment in a line: Oral bioavailability in Sprague-Dawley rat at 6.7 mg/kg, po. The class given is ADME, organism-based. The settings on record: in vivo.
The subject of data set [26] is Rattus norvegicus. The experiment in a line: AUC in Sprague-Dawley rat at 3.3 mg/kg, iv. The class given is ADME, organism-based, Plasma. On the set-up: dose 3.3 mg/kg, route intravenous. As to conditions: in vivo.
A short description of data set [27]: AUC in Beagle dog at 1 mg/kg, po. The class given is ADME, organism-based, Canis lupus familiaris. Also on record: dose 1 mg/kg, route oral. As to conditions: plasma.
The nature of data set [28]: Clearance in Sprague-Dawley rat at 3.3 mg/kg, iv. The class given is ADME, organism-based. Also on record: dose 3.3 mg/kg, route intravenous. The settings on record: in vivo.
Data set [29] can be described thus: Volume of distribution in Sprague-Dawley rat at 3.3 mg/kg, iv. The class given is ADME, organism-based. Also on record: dose 3.3 mg/kg, route intravenous. As to conditions: in vivo, read-out: Vdss.
Data set [30] in a line: Cmax in Sprague-Dawley rat at 6.7 mg/kg, po. The class given is ADME, organism-based. On the set-up: dose 6.7 mg/kg, route oral. As to conditions: in vivo.
Data set [31] can be described thus: Half life in Sprague-Dawley rat at 6.7 mg/kg, po. The class given is ADME, organism-based. Also on record: dose 6.7 mg/kg, route oral. As to conditions: in vivo.
Data set [32] deals with Rattus norvegicus. The data set can be described thus: AUC in Sprague-Dawley rat at 6.7 mg/kg, po. On the set-up: dose 6.7 mg/kg, route oral. As to conditions: in vivo. Type of data set: ADME, organism-based, Plasma.
Data set [33] in a line: Stability in dog liver S9 fraction after 30 mins. Type of data set: ADME, organism-based, Canis lupus familiaris. As to conditions: read-out: Stability.
A short description of data set [34]: Clearance in Beagle dog at 0.5 mg/kg, iv. The class given is ADME, organism-based, Canis lupus familiaris. The settings on record: in vivo. Also on record: dose 0.5 mg/kg, route intravenous.
Data set [35] can be described thus: Volume of distribution in Beagle dog at 0.5 mg/kg, iv. Also on record: dose 0.5 mg/kg, route intravenous. The class given is ADME, organism-based, Canis lupus familiaris. As to conditions: in vivo, read-out: Vdss.
Data set [36] can be described thus: AUC in Beagle dog at 0.5 mg/kg, iv. Type of data set: ADME, organism-based, Canis lupus familiaris. On the set-up: dose 0.5 mg/kg, route intravenous. The settings on record: plasma.
The nature of data set [37]: Stability in rat liver S9 fraction after 30 mins. Type of data set: ADME, organism-based. As to conditions: read-out: Stability.
Data set [38] can be described thus: Tmax in Sprague-Dawley rat at 6.7 mg/kg, po. The settings on record: in vivo. Also on record: dose 6.7 mg/kg, route oral. Type of data set: ADME, organism-based.
Data set [39] is described as follows: Half life in Beagle dog at 1 mg/kg, po. The class given is ADME, organism-based, Canis lupus familiaris. On the set-up: dose 1 mg/kg, route oral. The settings on record: in vivo.
Data set [40] can be described thus: Cmax in Beagle dog at 1 mg/kg, po. The settings on record: in vivo. Also on record: dose 1 mg/kg, route oral. The class given is ADME, organism-based, Canis lupus familiaris.
Data set [41] in a line: Half life in Beagle dog at 0.5 mg/kg, iv. On the set-up: dose 0.5 mg/kg, route intravenous. As to conditions: in vivo. Type of data set: ADME, organism-based, Canis lupus familiaris.
Data set [42] is described as follows: Tmax in Beagle dog at 1 mg/kg, po. The class given is ADME, organism-based, Canis lupus familiaris. On the set-up: dose 1 mg/kg, route oral. As to conditions: in vivo.

The pKa is the pH at which an ionisable group is half protonated. The term logP denotes a log measure of how a compound divides between an organic and an aqueous phase. Read a low logP as a more hydrophilic compound. For the compound `Cc1cc(COc2ccc(C(=O)NC3(CC(=O)NO)CCCCC3)cc2)c2ccccc2n1`, the pKa in [1] was 10.1. In data set [2], the logP was determined as 1.62.

`Cc1cc(COc2ccc(C(=O)NC3(CC(=O)NO)CCN(C(C)(C)C)CC3)cc2)c2ccccc2n1`: in data set [1], the pKa was 9. In data set [2], this compound showed a logP of 1.95.

In the case of `Cc1cc(COc2ccc(C(=O)NC3(CC(=O)NO)CCN(C4=NCCS4)CC3)cc2)c2ccccc2n1`, the pKa in data set [1] is 7.23. In addition, in [2], the logP was determined as 2.78.

As to `Cc1cc(COc2ccc(C(=O)NC3(CC(=O)NO)CCN(CCF)CC3)cc2)c2ccccc2n1`, the pKa in data set [1] was found to be 7.2. In data set [2], the lipophilicity (logP) amounted to 2.7.

Turning to `Cc1cc(COc2ccc(C(=O)NC3(CC(=O)NO)CCN(CC(C)(C)C)CC3)cc2)c2ccccc2n1`, the pKa in data set [1] is 7.75. In data set [2], this compound came in with a logP of 3.66.

By bioavailability is commonly meant dose-corrected exposure relative to a reference, in per cent. Lower therefore signals poor availability. By AUC is commonly meant concentration integrated over time. A higher AUC goes with more exposure. Usually clearance stands for the volume of plasma or blood freed of the substance per unit of time. Read a high clearance as efficient removal. As usually defined, the Tmax is the time at which the peak concentration occurs. As usually defined, the Cmax is the maximum level reached in the sampled fluid or tissue. The term half-life denotes how long it takes for the measured level to halve. `Cc1cc(COc2ccc(C(=O)NC3(CC(=O)NO)CCOCC3)cc2)c2ccccc2n1`: the bioavailability in [3] is 79%; in data set [5] it was 15%. Moreover, the AUC in [4] was found to be 7.72 µM·h; in [9] it was 1.97 µM·h; in [13], 4.86 µM·h; in data set [19], 2.21 µM·h. The clearance in data set [6] is 26.7 mL/min/kg; in data set [21], 38.3 mL/min/kg. In addition, the values for the Vd in data set [7] and in data set [11] were 2.5 L/kg and 0.7 L/kg, respectively. Moreover, the time of peak concentration (Tmax) worked out at 0.4 h in [8] and 0.75 h in [15]. Moreover, the Cmax in [10] was found to be 3.75 µM; in data set [14] it was 4.49 µM. The remaining at 0.5 h amounted to 36.7% in [12] and 83.8% in data set [16]. The half-life is 4.2 h in [17], 0.3 h in [18], 1.8 h in data set [20] and 4 h in data set [22].

In turn, `C#CC(C)(C)N1CCC(CC(=O)NO)(NC(=O)c2ccc(OCc3cc(C)nc4ccccc34)cc2)CC1` displayed a pKa in data set [1] of 6.58. The compound also had a logP in data set [2] of 3.43.

Regarding `Cc1cc(COc2ccc(C(=O)NC3(CC(=O)NO)CCNCC3)cc2)c2ccccc2n1`, the bioavailability in data set [23] stood at 8%. Also, the half-life was 2.1 h in data set [24], 2.2 h in [31], 2.1 h in data set [39] and 1.5 h in data set [41]. For the same compound, the F in data set [25] came to 17%. In addition, the AUC in [26] turned out to be 11.359 µM·h; in data set [27], 0.343 µM·h; in [32], 8.358 µM·h; in [36], 2.19 µM·h. Besides, the clearance in data set [28] was 10 mL/min/kg; in data set [34] it was 5 mL/min/kg. In [1], this compound returned a pKa of 8.4. Besides, the Vd in [29] and in data set [35] was 0.3 L/kg each time. Moreover, the figures for the Cmax in data set [30] and in [40] were 2.48 µM and 0.126 µM, respectively. Further, the remaining at 0.5 h in [12] is 100%; in data set [33] it was 100%; in data set [16] it was 92%; in data set [37], 100%. In [2], this compound showed a logP of 2.13. The figures for the Tmax in data set [38] and in [42] were 0.3 h and 0.63 h, respectively.

For `CCS(=O)(=O)CCN1CCC(CC(=O)NO)(NC(=O)c2ccc(OCc3cc(C)nc4ccccc34)cc2)CC1`, the pKa in [1] came out at 6.06. In data set [2], the logP was 2.48.
